Read-outs that look alike come from different tables or passages of the source.
Tests used:
[1] = system: HCMV; assay: Plaque reduction assay, HCMV; format: cell-based
Method: (§1) Protocol: Plaque reduction assay. Treatment after adsorption during incubation.

[2] = system: HIV-1; settings: cited from earlier work
[3] = system: virus-induced cell fusion (gp120-CD4 dependent); assay: Anti-syncytial cocultivation assay: H9 cells chronically infected with HIV-1 RF mixed with uninfected C8166 cells; format: cell-based, HIV-1 RF; human H9 and C8166 cells; settings: for blocking virus-induced cell fusion and death: summary statement
Excerpt: Syncytial cell formation depends on the interaction of gp120, expressed in the membranes of infected cells, with the CD4 antigen on neighboring cells (Camerini and Seed, 1990). We utilized a cell cocultivation model to examine the effect of the stilbene disulfonic acids on the gp120-CD4 dependent fusion process. This system consists of mixing H9 cells chronically infected with HIV-1 RF (gp120^+ cells) with uninfected C8166 cells (CD4^+ cells) as the fusion indicator. In this assay, cell fusion occurred within 2 to 3 hours of mixing at 37° C. and substantial syncytia were observed after a further 3 to 4 hours (FIG. 1, Panel A). […] These findings with the sulfated polysaccharides were consistent with a previous report (Montefiori et al., 1990).
The effect of the stilbene disulfonic acids and various sulfated polysaccharides on virus-induced cell fusion. In this assay, 10^5 H9 cells, chronically infected with the HIV-1 strain RF, were cocultured with 10^5 uninfected C8166 cells in the absence and presence of the test compounds. FIG. 1A: Positive control, no compound addition; FIG. 1B: 100 μg/ml DIDS; FIG. 1C: 100 μg/ml SITS; FIG. 1D: positive control; FIG. 1E: 10 μg/ml 500,000 MW dextran sulfate; FIG. 1F: 250 μg/ml heparin.
CD4^+ uninfected C8166 cells were seeded into 24-well trays ([…]) that contained growth medium and various concentrations of test compounds. H9 cells, chronically infected with the RF strain of HIV-1, were washed and then added as a source of gp120^+ cells at 10^5 cells/well except for the noncytopathic control: those wells received uninfected H9 cells. The trays were then incubated at 37° C. and the cocultures were observed between 1 and 6 hours p.i. Syncytia were recorded on photographic film.
Protocol: H9 cells chronically infected with RF strain of HIV-1 and uninfected C8166 cells were mixed in the presence of either DIDS, SITS, H2 DIDS, dextran sulfate, or heparin (100 μg/ml). The cells were observed after 2, 31/2 and 51/2 hours and the amount of cell fusion quantified.
Protocol: H9 cells chronically inected with HIV-1 and uninfected C8166 cells were mixed in the presence of either DIDS, SITS, H2 DIDS, dextran sulfate, heparin (at 100 μg/ml), OKT4 or OKT4A (at a 1/50 dilution). The cells were observed after 4 hours and the amount of cell fusion quantitied. OKT4 and OKT4A are monoclonal antibodies that bined the CD4 cell surface antigen.

[4] = system: virus-induced cell fusion (gp120-CD4 dependent); assay: Cell fusion after pretreatment of uninfected C8166 cells, washing and mixing with chronically infected H9 cells; format: cell-based, HIV-1; human H9 and C8166 cells; settings: cells pretreated and washed before mixing with H9 cells
Method: In the next experiments, CD4+ C8166 cells were pretreated overnight with either DIDS (100 μg/ml), SITS (100 μg/ml) or drug-free medium. Unabsorbed compounds were removed by repeated washings and chronically infected H9 cells were then added. […] Thus, cell washing prior to mixing with the H9 cells oblated the protective effect observed above (FIG. 1, Panel E) when 500,000 MW dextran sulfate was continually present in the assay.
Pretreatment of CD4+ C8166 cells with DIDS blocks fusion with chronically infected H9 cells. In this experiment, C8166 cells were pretreated overight with various stilbene disulfonic acids or drug-free medium (fusion control). The cells were washed, incubated with chronically infected H9 cells and syncytia were photographed at 6 hours post-mixing. Pretreatment conditions were as follows: […]: 100 μg/ml SITS; FIG. 2B: drug-free medium; and FIG. 2C: 100 μg/ml DIDS.
In pretreatment experiments, CD4^+ C8166 cells were maintained in serum-free medium (RPMI 1640 plus human transferrin 50 μg/ml, bovine insulin 20 μg/ml, bovine serum albumin 2 mg/ml) and were exposed to compound by overnight incubation. Treated cells were washed twice in fresh serum-free medium and then cocultured with chronically infected H9 cells in serum-free medium. Otherwise, cell numbers, assay conditions and scoring of syncytia were as described above.
Protocol: C8166 cells were pretreated for 2.5 hours with either DIDS, SITS or H2 DIDS (at 500 and 250 μg/ml). The cells were then washed three times and mixed with H9 cells chronically infected with HIV-1. Cell fusion was quantified after 4 and 24 hours.

[5] = system: HSV 2; assay: Plaque reduction assay, HSV 2; format: cell-based
Method: as §1

[6] = system: HIV-1 infected JM cells; assay: Treatment of HIV-1 infected JM cells with DIDS, SITS and ddC; format: cell-based, HIV-1 (human T cell line JM); settings: 5 μM
Method: Protocol: JM cells were infected with HIV to give approximately 100 syncytia after 3 days. Virus adsorption was at room temperature for 2 hours. The cells were then washed thoroughly and distributed in wells of a tissue culture plate at a concentration of 1×10^5 cells/well. At 24 hours post infection either DIDS (100 μg/ml), SITS (100 μg/ml), or ddC (5 μM) were added to wells having infected cells. As virus controls, some wells had no drug added. At 42 hours post infection other wells received either ddC (5 μM), SITS (100 μg/ml), or DIDS (100, 50, 25, 12.5, 6.25 μg/ml). Syncytia were scored at 3 and 4 days post-infection and the supernatant fluids were harvested after 3 and 4 days for p24 core antigen determination.

With `Nc1nc(O)c2ncn(COC(CO)CO)c2n1` [Gancyclovir, reference compound] the Plaque counts ([1]; 0.1 μg/ml, first count) was 34, the Plaque counts ([1]; 0.1 μg/ml, second count) was 39 and the Plaque counts ([1]; 1 μg/ml, first count) was 6. The Plaque counts ([1]; 1 μg/ml, second count) was 13, the Plaque counts ([1]; 1 μg/ml, third count) was 1 and the Plaque counts ([1]; 10 μg/ml, first count) was 3. It also gave a Plaque counts ([1]; 10 μg/ml, second count) of 2, a Plaque counts ([1]; 10 μg/ml, third count) of 7 and a Plaque counts ([1]; 1000 μg/ml, first count) of 0. For the same compound, the Plaque counts ([1]; 1000 μg/ml, second count) was 0, the Plaque counts ([1]; 1000 μg/ml, third count) was 0 and the activity at 0.1 µg/mL ([1]; Human betaherpesvirus 5, 0.1 μg/ml, read-out: Mean % VC (plaques)) was > 100%. The activity at 1 µg/mL ([1]; Human betaherpesvirus 5, 1 μg/ml, read-out: Mean % VC (plaques)) was 22%, the activity at 10 µg/mL ([1]; Human betaherpesvirus 5, 10 μg/ml, read-out: Mean % VC (plaques)) was 10% and the activity at 1000 µg/mL ([1]; Human betaherpesvirus 5, 1000 μg/ml, read-out: Mean % VC (plaques)) was 0%.

In the case of pentosan polysulfate, the “inhibition of HIV-1 replication in vitro” value [2] is listed as “highly effective inhibitors”.

In the case of Heparin [reference compound], the “cell fusion relative to nontreated virus control” value ([3]; 250 μg/ml, Panel F) is given as “totally ineffective”, the “blocking virus-induced cell fusion and death” value [3] is given as “ineffective at blocking virus-induced cell fusion and death” and the “inhibition of HIV-1 replication in vitro” value [2] is given as “highly effective inhibitors”. The “protective effect after pretreatment” value [4] was “no protective effect”.

In the case of “Dextran sulfate (8,000) [reference compound]”, the “cell fusion / syncytia” value ([3]; 100 μg/ml, at the time of cell mixing) is reported as “totally ineffective” and the “blocking virus-induced cell fusion and death” value [3] is reported as “ineffective at blocking virus-induced cell fusion and death”.

With `Nc1nc2c(ncn2COCCO)c(=O)[nH]1` [Acyclovir, reference compound] the Plaque counts ([5]; 0.1 μg/ml, first count) was 44, the activity at 0.1 µg/mL ([5]; 0.1 μg/ml, read-out: Mean % VC (plaques)) was 70% and the Plaque counts ([5]; 0.1 μg/ml, second count) was 34. The Plaque counts ([5]; 1 μg/ml, first count) was 31, the activity at 1 µg/mL ([5]; 1 μg/ml, read-out: Mean % VC (plaques)) was 54% and the Plaque counts ([5]; 1 μg/ml, second count) was 31. The Plaque counts ([5]; 1 μg/ml, third count) was 29, the Plaque counts ([5]; 10 μg/ml, first count) was 0 and the activity at 10 µg/mL ([5]; 10 μg/ml, read-out: Mean % VC (plaques)) was 0%. For the same compound, the Plaque counts ([5]; 10 μg/ml, second count) was 1, the Plaque counts ([5]; 10 μg/ml, third count) was 0 and the Plaque counts ([5]; 100 μg/ml, first count) was 0. It also gave an activity at 100 µg/mL ([5]; 100 μg/ml, read-out: Mean % VC (plaques)) of 0%, a Plaque counts ([5]; 100 μg/ml, second count) of 0 and a Plaque counts ([5]; 100 μg/ml, third count) of 0.

For Dextran Sulfate [reference compound], the “Syncytia after 3 1/2 hrs” value ([3]; 100 μg/ml, virus control +++) is given as 0, the “Syncytia after 5 1/2 hrs” value ([3]; 100 μg/ml, virus control +++) is given as 0 and the “inhibition of HIV-1 replication in vitro” value [2] is given as “highly effective inhibitors”.

In the case of `Nc1ccn([C@H]2CC[C@@H](CO)O2)c(=O)n1` [ddC, reference compound], the “Mean syncytia/well 3 days p.i.” value ([6]; added 24 hr) is reported as 65, the “Mean syncytia/well 4 days p.i.” value ([6]; added 24 hr) is reported as 51 and the “p24 antigen 3 days p.i.” value ([6]; added 24 hr) is reported as 9000 pg/mL. The “p24 antigen 4 days p.i.” value ([6]; added 24 hr) was 3100 pg/mL, the “Mean syncytia/well 3 days p.i.” value ([6]; added 42 hr) was “As VC” and the “Mean syncytia/well 4 days p.i.” value ([6]; added 42 hr) was “As VC”. For the same compound, the “p24 antigen 3 days p.i.” value ([6]; added 42 hr) was 17000 pg/mL, the “p24 antigen 4 days p.i.” value ([6]; added 42 hr) was 67000 pg/mL and the activity at 5 µM ([6]; Human immunodeficiency virus 1, 72 h, added 24 hr, read-out: p24 antigen 3 days p.i., % control) was 19%. The activity at 5 µM ([6]; Human immunodeficiency virus 1, 72 h, added 42 hr, read-out: p24 antigen 3 days p.i., % control) was 36%, the activity at 5 µM ([6]; Human immunodeficiency virus 1, 96 h, added 24 hr, read-out: p24 antigen 4 days p.i., % control) was 3.5% and the activity at 5 µM ([6]; Human immunodeficiency virus 1, 96 h, added 42 hr, read-out: p24 antigen 4 days p.i., % control) was 75%.

Source: patent US5494932A, “Sulfonic stilbene derivatives in the treatment of viral disease” (Merrell Dow Pharmaceuticals Inc., priority 1991, dated 1996)
